Results: patent US20250066344A1 (BRISTOL-MYERS SQUIBB COMPANY, priority 2021, published 2025)

Molecular target: T1, human RXFP1 (Homo sapiens, UniProt Q9HBX9)
T1 construct: expressed in transfected cells
T1 sequence (Q9HBX9 1-757): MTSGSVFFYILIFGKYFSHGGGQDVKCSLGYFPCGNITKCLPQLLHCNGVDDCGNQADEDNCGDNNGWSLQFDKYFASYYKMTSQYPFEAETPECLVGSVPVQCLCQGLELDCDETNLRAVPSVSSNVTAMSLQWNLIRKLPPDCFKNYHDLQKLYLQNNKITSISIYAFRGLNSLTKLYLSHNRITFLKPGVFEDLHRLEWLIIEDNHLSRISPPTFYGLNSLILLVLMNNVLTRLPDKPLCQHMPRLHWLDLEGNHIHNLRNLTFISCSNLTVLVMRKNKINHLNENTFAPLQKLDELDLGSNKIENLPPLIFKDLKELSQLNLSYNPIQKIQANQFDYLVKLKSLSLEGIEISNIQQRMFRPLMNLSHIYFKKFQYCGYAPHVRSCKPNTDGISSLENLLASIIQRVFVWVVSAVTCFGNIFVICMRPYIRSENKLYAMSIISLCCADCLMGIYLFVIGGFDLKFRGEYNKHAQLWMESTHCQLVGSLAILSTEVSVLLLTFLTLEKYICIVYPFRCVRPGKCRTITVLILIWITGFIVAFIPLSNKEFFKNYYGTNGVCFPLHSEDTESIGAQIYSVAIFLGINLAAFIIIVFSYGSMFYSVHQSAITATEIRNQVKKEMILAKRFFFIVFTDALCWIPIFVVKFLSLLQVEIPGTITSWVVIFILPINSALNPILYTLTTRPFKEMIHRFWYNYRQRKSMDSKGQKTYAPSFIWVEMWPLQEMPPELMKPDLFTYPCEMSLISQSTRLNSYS
Test: RXFP1 cyclic adenosine monophosphate (cAMP) assay, hRXFP1 HEK293
Assay type: cell-based
Settings: HEK293 cells stably expressing human RXFP1; 30 min at room temperature; HTRF cAMP
Method in brief: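 HEK293 cells stably expressing human RXFP1 were exposed to compounds (0.010 nM–50 μM, 2% DMSO) for 30 min at room temperature in HBSS/HEPES buffer with 0.5 mM IBMX. Intracellular cAMP was measured by HTRF against a cAMP standard curve; EC50 from 4-parameter logistic fit.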

Q: For `COc1ccc(-c2cnc3n2CCNC3)cc1C(=O)Nc1cc2c(cc1C(=O)Nc1ccc(F)c(C(F)(F)F)c1)OC(F)(F)O2` [Example 62, 2,2-difluoro-N-(4-fluoro-3-(trifluoromethyl)phenyl)-6-(2-methoxy-5-(5,6,7,8-tetrahydroimidazo[1,2-a]pyrazin-3-yl)benzamido)benzo[d] [1,3]dioxole-5-carboxamide], which EC50 is on record?
A: 646 nM

Q: With `COc1ccc(C2=NOC3C4CC(C(=O)N4)C23)cc1C(=O)Nc1cc2nc(C)sc2cc1C(=O)Nc1ccc(F)c(C(F)(F)F)c1` (centres unmarked) [Example 15, N-(4-fluoro-3-(trifluoro-methyl)phen-yl)-5-(2-meth-oxy-5-(5-oxo-3a,4,5,6,7,7a-hexahydro-4,7-methano-isoxazolo[5,4-c]pyridin-3-yl)benzami-do)-2-methyl-benzo[d]thi-azole-6-car-boxamide] as the molecule, how does the EC50 read?
A: 180 nM

Q: For `COc1ccc(-c2cnc3n2CCN(CCO)C3)cc1C(=O)Nc1cc2c(cc1C(=O)Nc1ccc(F)c(C(F)(F)F)c1)OC(F)(F)O2` [Example 80, 2,2-difluoro-N-(4-fluoro-3-(trifluoromethyl)phenyl)-6-(5-(7-(2-hydroxyethyl)-5,6,7,8-tetrahydroimidazo[1,2-a]pyrazin-3-yl)-2-methoxybenzamido) benzo[d][1,3]dioxole-5-carboxamide], which EC50 is on record?
A: 260 nM

Q: Which EC50 does the source give for `COc1ccc(C2CC3(CNC3)C2)cc1C(=O)Nc1cc2c(cc1C(=O)Nc1ccc(F)c(C(F)(F)F)c1)OC(F)(F)O2` [Example 92, 2,2-difluoro-N-(4-fluoro-3-(trifluoromethyl)phenyl)-6-(2-methoxy-5-(2-azaspiro[3.3]heptan-6-yl)benzamido)benzo[d] [1,3]dioxole-5-carboxamide] here?
A: 2640 nM

Q: Which EC50 does the source give for `COc1ccc(C2CCN(C(=O)C(C)(C)O)C2)cc1C(=O)Nc1cc2c(cc1C(=O)Nc1ccc(F)c(C(F)(F)F)c1)OC(F)(F)O2` (single isomer, unassigned) [Example 46, 2,2-difluoro-N-(4-fluoro-3-(trifluoromethyl)phenyl)-6-(5-(1-(2-hydroxy-2-methylpropanoyl)pyrrolidin-3-yl)-2-methoxybenzamido)benzo[d][1,3]dioxole-5-carboxamide] here?
A: 49 nM

Q: With `COc1ccc(C2=NOC3C(O)CC(O)C23)cc1C(=O)Nc1cc2nc(C)sc2cc1C(=O)Nc1ccc(F)c(C(F)(F)F)c1` (centres unmarked) [Example 7, 5-(5-(4,6-dihydroxy-3a,5,6,6a-tetra-hydro-4H-cyclopenta[d]isoxazol-3-yl)-2-methoxy-benzamido)-N-(4-fluoro-3-(trifluorometh-yl)phenyl)-2-methylbenzo [d]thiazole-6-carboxamide] as the molecule, how does the EC50 read?
A: 31 nM

Q: Which EC50 does the source give for `COc1ccc(C2CCN(C(=O)C(C)(C)O)C2)cc1C(=O)Nc1cc2c(cc1C(=O)Nc1ccc(F)c(C(F)(F)F)c1)OC(F)(F)O2` (single isomer, unassigned) [Example 55, 2,2-difluoro-N-(4-fluoro-3-(trifluoromethyl)phenyl)-6-(5-(1-(2-hydroxy-2-methylpropanoyl)pyrrolidin-3-yl)-2-methoxybenzamido) benzo[d][1,3]dioxole-5-carboxamide] here?
A: 322 nM

Q: For `COc1ccc(C2=NOC3COCC23)cc1C(=O)Nc1cc2nc(C)sc2cc1C(=O)Nc1ccc(F)c(C(F)(F)F)c1` (single isomer, unassigned) [Example 2, N-(4-fluoro-3-(trifluoromethyl)phenyl)-5-(2-methoxy-5-(3a,4,6,6a-tetrahydrofuro[3,4-d]isoxazol-3-yl)benzamido)-2-methylbenzo[d]thiazole-6-carboxamide], which EC50 is on record?
A: 1000 nM

Q: With `COc1ccc(-c2nc3c(s2)CNCC3)cc1C(=O)Nc1cc2c(cc1C(=O)Nc1ccc(F)c(C(F)(F)F)c1)OC(F)(F)O2` [Example 52, 2,2-difluoro-N-(4-fluoro-3-(trifluoromethyl)phenyl)-6-(2-methoxy-5-(4,5,6,7-tetrahydrothiazolo[5,4-c]pyridin-2-yl)benzamido)benzo[d][1,3]dioxole-5-carboxamide] as the molecule, how does the EC50 read?
A: 683 nM

Q: With `COc1ccc(C2CCCN(C3COC3)CC2)cc1C(=O)Nc1cc2c(cc1C(=O)Nc1ccc(F)c(C(F)(F)F)c1)OC(F)(F)O2` (centres unmarked) [Example 95, 2,2-difluoro-N-(4-fluoro-3-(trifluoromethyl)phenyl)-6-(2-methoxy-5-(1-(oxetan-3-yl)azepan-4-yl)benzamido)benzo[d] [1,3]dioxole-5-carboxamide] as the molecule, how does the EC50 read?
A: 862 nM

Tested on: not given
Test: not given
Settings: intravenous (IV) formulation; cited from earlier work

Q: With Serelaxin as the molecule, how does the first-phase pharmacokinetic half-life read?
A: 5.4 min
